19 molecules from patent US20120045393A1 (priority 2009, published 2012) can be followed below.

Non-standard residues stand in square brackets, D forms with d. Residues, ends and D or L forms follow the SMILES beside them. *: point of attachment. DOTA = O=C(O)CN1CCN(CC(=O)O)CCN(CC(=O)*)CCN(CC(=O)O)CC1; Bpa = N[C@@H](Cc1ccc(C(=O)c2ccccc2)cc1)C(=O)O; Ala(4-thiazolyl) = N[C@@H](Cc1cscn1)C(=O)O; Phe(4-Cl) = N[C@@H](Cc1ccc(Cl)cc1)C(=O)O; d2Nal = N[C@H](Cc1ccc2ccccc2c1)C(=O)O; His(π-Me) = Cn1cncc1C[C@H](N)C(=O)O; azaGly = NNC(=O)O; Sar = CNCC(=O)O
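Further: Cell-associated radioactivity on confluent EFO-27 monolayers in 96-well plates, measured by microplate scintillation counting.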

The test system of the first test is LHRH binding sites on human ovarian cancer cells (EFO-27).
Settings: not given
`N=C(N)NCCC[C@H](NC(=O)[C@@H](Cc1ccc2ccccc2c1)NC(=O)CN1CCN(CC(=O)O)CCN(CC(=O)O)CCN(CC(=O)O)CC1)C(=O)N[C@@H](Cc1cccnc1)C(=O)N[C@@H](CO)C(=O)N[C@@H](Cc1c[nH]cn1)C(=O)N[C@H](CCCNC(=N)N)C(=O)N[C@@H](Cc1c[nH]c2ccccc12)C(=O)N[C@@H](Cc1ccc(C(=O)c2ccccc2)cc1)C(=O)N1CCC[C@H]1C(=O)NNC(N)=O` [compound 3109]: the EC50 was found to be 730 nM. On the same count and under the same terms, with `N=C(N)NCCC[C@H](NC(=O)[C@@H](Cc1ccc2ccccc2c1)NC(=O)CN1CCN(CC(=O)O)CCN(CC(=O)O)CCN(CC(=O)O)CC1)C(=O)N[C@@H](Cc1c[nH]c2ccccc12)C(=O)N[C@@H](Cc1c[nH]c2ccccc12)C(=O)N[C@@H](Cc1c[nH]cn1)C(=O)N[C@H](CCCNC(=N)N)C(=O)N[C@@H](Cc1c[nH]c2ccccc12)C(=O)N[C@@H](Cc1ccc(C(=O)c2ccccc2)cc1)C(=O)N1CCC[C@H]1C(=O)NNC(N)=O` [compound 3114] ({DOTA}-[d2Nal]RWWH[dR]W[Bpa]P[azaGly]-NH2) the figure was 11500 nM; with `CN(CC(=O)N[C@@H](Cc1c[nH]cn1)C(=O)N[C@@H](Cc1c[nH]c2ccccc12)C(=O)N[C@@H](CO)C(=O)N[C@@H](Cc1c[nH]cn1)C(=O)N[C@H](CCCNC(=N)N)C(=O)N[C@@H](Cc1c[nH]c2ccccc12)C(=O)N[C@@H](Cc1ccc(C(=NO)c2ccccc2)cc1)C(=O)N1CCC[C@H]1C(=O)NNC(N)=O)C(=O)CN1CCN(CC(=O)O)CCN(CC(=O)O)CCN(CC(=O)O)CC1` [BRU-2907], 1900 nM; with `CNCC(=O)N[C@@H](CCCNC(=N)N)C(=O)N[C@@H](Cc1c[nH]c2ccccc12)C(=O)N[C@@H](CO)C(=O)N[C@@H](Cc1c[nH]cn1)C(=O)N[C@H](CCCNC(=N)N)C(=O)N[C@@H](Cc1c[nH]c2ccccc12)C(=O)N[C@@H](Cc1ccc(C(=O)c2ccccc2)cc1)C(=O)N1CCC[C@H]1C(=O)NCCNC(=O)CN1CCN(CC(=O)O)CCN(CC(=O)O)CCN(CC(=O)O)CC1` [compound 3103], 170 ± 70 nM. Still for that read-out and setting: with `CN(CC(=O)N[C@@H](Cc1cncn1C)C(=O)N[C@@H](Cc1c[nH]c2ccccc12)C(=O)N[C@@H](CO)C(=O)N[C@@H](Cc1cscn1)C(=O)N[C@H](CCCNC(=N)N)C(=O)N[C@@H](Cc1c[nH]c2ccccc12)C(=O)N[C@@H](Cc1ccc(C(=O)c2ccccc2)cc1)C(=O)N1CCC[C@H]1C(=O)NNC(N)=O)C(=O)CN1CCN(CC(=O)O)CCN(CC(=O)O)CCN(CC(=O)O)CC1` [BRU-2739] ({DOTA}-[Sar][His(π-Me)]WS[Ala(4-thiazolyl)][dR]W[Bpa]P[azaGly]-NH2; C-terminus assumed) the figure was 5280 nM. Same read-out and setting: with `N=C(N)NCCC[C@H](NC(=O)[C@@H](Cc1ccc2ccccc2c1)NC(=O)CN1CCN(CC(=O)O)CCN(CC(=O)O)CCN(CC(=O)O)CC1)C(=O)N[C@@H](Cc1c[nH]c2ccccc12)C(=O)N[C@@H](CO)C(=O)N[C@@H](Cc1c[nH]cn1)C(=O)N[C@H](CCCNC(=N)N)C(=O)N[C@@H](Cc1c[nH]c2ccccc12)C(=O)N[C@@H](Cc1ccc(C(=O)c2ccccc2)cc1)C(=O)N1CCC[C@H]1C(=O)NNC(=O)NCCCCN` [compound 3019] the figure was 900 nM; with `CN(CC(=O)N[C@@H](Cc1c[nH]c2ccccc12)C(=O)N[C@@H](CO)C(=O)N[C@@H](Cc1cscn1)C(=O)N[C@H](CCCNC(=N)N)C(=O)N[C@@H](Cc1c[nH]c2ccccc12)C(=O)N[C@@H](Cc1ccc(C(=O)c2ccccc2)cc1)C(=O)N1CCC[C@H]1C(=O)NNC(N)=O)C(=O)CN1CCN(CC(=O)O)CCN(CC(=O)O)CCN(CC(=O)O)CC1` [compound 2740] ({DOTA}-[Sar]WS[Ala(4-thiazolyl)][dR]W[Bpa]P[azaGly]-NH2), 5530 nM; with `N=C(N)NCCC[C@H](NC(=O)[C@@H](Cc1ccc2ccccc2c1)NC(=O)CN1CCN(CC(=O)O)CCN(CC(=O)O)CCN(CC(=O)O)CC1)C(=O)N[C@@H](Cc1c[nH]c2ccccc12)C(=O)N[C@@H](CC(=O)O)C(=O)N[C@@H](Cc1c[nH]cn1)C(=O)N[C@H](CCCNC(=N)N)C(=O)N[C@@H](Cc1c[nH]c2ccccc12)C(=O)N[C@@H](Cc1ccc(C(=O)c2ccccc2)cc1)C(=O)N1CCC[C@H]1C(=O)NNC(N)=O` [BRU-2954] ({DOTA}-[d2Nal]RWDH[dR]W[Bpa]P[azaGly]-NH2), 4200 nM. The molecule `CN(CC(=O)N[C@@H](Cc1ccc(Cl)cc1)C(=O)N[C@@H](Cc1c[nH]c2ccccc12)C(=O)N[C@@H](CO)C(=O)N[C@@H](Cc1c[nH]cn1)C(=O)N[C@H](CCCNC(=N)N)C(=O)N[C@@H](Cc1c[nH]c2ccccc12)C(=O)N[C@@H](Cc1ccc(C(=O)c2ccccc2)cc1)C(=O)N1CCC[C@H]1C(=O)NNC(N)=O)C(=O)CN1CCN(CC(=O)O)CCN(CC(=O)O)CCN(CC(=O)O)CC1` [BRU-2719] ({DOTA}-[Sar][Phe(4-Cl)]WSH[dR]W[Bpa]P[azaGly]-NH2) registered an EC50 of 630 nM.

`CSCC[C@H](NC(=O)[C@H](Cc1c[nH]c2ccccc12)NC(=O)[C@H](CCCNC(=N)N)NC(=O)[C@@H](Cc1ccc2ccccc2c1)NC(=O)CN1CCN(CC(=O)O)CCN(CC(=O)O)CCN(CC(=O)O)CC1)C(=O)N[C@@H](Cc1c[nH]cn1)C(=O)N[C@H](CCCNC(=N)N)C(=O)N[C@@H](Cc1c[nH]c2ccccc12)C(=O)N[C@@H](Cc1ccc(C(=O)c2ccccc2)cc1)C(=O)N1CCC[C@H]1C(=O)NNC(N)=O` [BRU-2964] ({DOTA}-[d2Nal]RWMH[dR]W[Bpa]P[azaGly]-NH2) showed an EC50 of 220 nM.

Regarding `CNCC(=O)N[C@@H](CCCNC(=N)N)C(=O)N[C@@H](Cc1c[nH]c2ccccc12)C(=O)N[C@@H](CO)C(=O)N[C@@H](Cc1c[nH]cn1)C(=O)N[C@H](CCCNC(=N)N)C(=O)N[C@@H](Cc1c[nH]c2ccccc12)C(=O)N[C@@H](Cc1ccc(C(=O)c2ccccc2)cc1)C(=O)N1CCC[C@H]1C(=O)NCCCN(C)CCCNC(=O)CN1CCN(CC(=O)O)CCN(CC(=O)O)CCN(CC(=O)O)CC1` [BRU-3045], the EC50 is at most 200 nM.

`CNCC(=O)N[C@@H](CCCNC(=N)N)C(=O)N[C@@H](Cc1c[nH]c2ccccc12)C(=O)N[C@@H](CO)C(=O)N[C@@H](Cc1c[nH]cn1)C(=O)N[C@H](CCCNC(=N)N)C(=O)N[C@@H](Cc1c[nH]c2ccccc12)C(=O)N[C@@H](Cc1ccc(C(=O)c2ccccc2)cc1)C(=O)N1CCC[C@H]1C(=O)NCCCCNC(=O)CN1CCN(CC(=O)O)CCN(CC(=O)O)CCN(CC(=O)O)CC1` [compound 3041] returned an EC50 of 360 ± 20 nM.

`C[C@H](NC(=O)[C@H](CO)NC(=O)[C@H](Cc1c[nH]c2ccccc12)NC(=O)[C@H](CCCNC(=N)N)NC(=O)[C@@H](Cc1ccc2ccccc2c1)NC(=O)CN1CCN(CC(=O)O)CCN(CC(=O)O)CCN(CC(=O)O)CC1)C(=O)N[C@H](CCCNC(=N)N)C(=O)N[C@@H](Cc1c[nH]c2ccccc12)C(=O)N[C@@H](Cc1ccc(C(=O)c2ccccc2)cc1)C(=O)N1CCC[C@H]1C(=O)NNC(N)=O` [compound 3028] ({DOTA}-[d2Nal]RWSA[dR]W[Bpa]P[azaGly]-NH2) showed an EC50 of 1090 nM.

The same test, now with this note: BRU-2813 vs BRU-2666; BRU-2964 vs BRU-2813.
Take `CSCC[C@H](NC(=O)[C@H](Cc1c[nH]c2ccccc12)NC(=O)[C@H](CCCNC(=N)N)NC(=O)[C@@H](Cc1ccc2ccccc2c1)NC(=O)CN1CCN(CC(=O)O)CCN(CC(=O)O)CCN(CC(=O)O)CC1)C(=O)N[C@@H](Cc1c[nH]cn1)C(=O)N[C@H](CCCNC(=N)N)C(=O)N[C@@H](Cc1c[nH]c2ccccc12)C(=O)N[C@@H](Cc1ccc(C(=O)c2ccccc2)cc1)C(=O)N1CCC[C@H]1C(=O)NNC(N)=O` [BRU-2964] ({DOTA}-[d2Nal]RWMH[dR]W[Bpa]P[azaGly]-NH2): the “more potency than the comparator analog” value came to 30%.

The test is the same for the next values; noted with them: EFO-27 cells, competition with [125I-Tyr8]BRU-2477, 90 min.
`N=C(N)NCCC[C@H](NC(=O)[C@@H](Cc1ccc2ccccc2c1)NC(=O)CN1CCN(CC(=O)O)CCN(CC(=O)O)CCN(CC(=O)O)CC1)C(=O)N[C@@H](Cc1c[nH]c2ccccc12)C(=O)N[C@@H](CO)C(=O)N[C@@H](Cc1c[nH]cn1)C(=O)N[C@H](CCCNC(=N)N)C(=O)N[C@@H](Cc1c[nH]c2ccccc12)C(=O)N[C@@H](Cc1ccc(C(=O)c2ccccc2)cc1)C(=O)N1CCC[C@H]1C(=O)NCC(=O)N[C@@H](Cc1ccccc1)C(N)=O` [compound 2980] ({DOTA}-[d2Nal]RWSH[dR]W[Bpa]PGF-NH2) registered an EC50 of 970 nM. This lies in the sub-micromolar range. Still for that read-out and setting: next, `CN(CC(=O)N[C@@H](Cc1c[nH]cn1)C(=O)N[C@@H](Cc1c[nH]c2ccccc12)C(=O)N[C@@H](CO)C(=O)N[C@@H](Cc1c[nH]cn1)C(=O)N[C@H](CCCNC(=N)N)C(=O)N[C@@H](Cc1c[nH]c2ccccc12)C(=O)N[C@@H](Cc1ccc(C(=O)c2ccccc2)cc1)C(=O)N1CCC[C@H]1C(=O)NNC(N)=O)C(=O)CN1CCN(CC(=O)O)CCN(CC(=O)O)CCN(CC(=O)O)CC1` [BRU-2443]: 950 nM.

`N=C(N)NCCC[C@H](NC(=O)CNC(=O)[C@@H]1CCCN1C(=O)[C@H](Cc1ccc(C(=O)c2ccccc2)cc1)NC(=O)[C@H](Cc1c[nH]c2ccccc12)NC(=O)[C@@H](CCCNC(=N)N)NC(=O)[C@H](Cc1c[nH]cn1)NC(=O)[C@H](CO)NC(=O)[C@H](Cc1c[nH]c2ccccc12)NC(=O)[C@H](CCCNC(=N)N)NC(=O)[C@@H](Cc1ccc2ccccc2c1)NC(=O)CN1CCN(CC(=O)O)CCN(CC(=O)O)CCN(CC(=O)O)CC1)C(N)=O` [compound 2969] ({DOTA}-[d2Nal]RWSH[dR]W[Bpa]PGR-NH2) came in with an EC50 of 240 nM. Compared with the last molecule, the EC50 is about 4-fold lower.

Still in this test, the particulars now being: Table 5: modifications of amino acids at positions 1 and 2; in vitro binding on EFO-27 cells.
For the molecule `N=C(N)NCCC[C@@H](NC(=O)[C@H](Cc1c[nH]cn1)NC(=O)[C@H](CO)NC(=O)[C@H](Cc1c[nH]c2ccccc12)NC(=O)[C@H](Cc1c[nH]cn1)NC(=O)[C@H](Cc1ccccc1)NC(=O)CN1CCN(CC(=O)O)CCN(CC(=O)O)CCN(CC(=O)O)CC1)C(=O)N[C@@H](Cc1c[nH]c2ccccc12)C(=O)N[C@@H](Cc1ccc(C(=O)c2ccccc2)cc1)C(=O)N1CCC[C@H]1C(=O)NNC(N)=O` [BRU-2735], the midpoint of the response, the EC50, lay at 1140 nM.

Still in this test, the particulars now being: Table 12: modification of amino acid at position 3; EFO-27 cells.
In turn, `N=C(N)NCCC[C@H](NC(=O)[C@@H](Cc1ccc2ccccc2c1)NC(=O)CN1CCN(CC(=O)O)CCN(CC(=O)O)CCN(CC(=O)O)CC1)C(=O)N[C@H](Cc1c[nH]c2ccccc12)C(=O)N[C@@H](CO)C(=O)N[C@@H](Cc1c[nH]cn1)C(=O)N[C@H](CCCNC(=N)N)C(=O)N[C@@H](Cc1c[nH]c2ccccc12)C(=O)N[C@@H](Cc1ccc(C(=O)c2ccccc2)cc1)C(=O)N1CCC[C@H]1C(=O)NNC(N)=O` [compound 3112] returned an EC50 of 850 nM.

Staying with this test, now noted: ratio of EC50 to BRU-2813 (EC50=0.33 μM).
On to `N=C(N)NCCC[C@H](NC(=O)[C@@H](Cc1ccc2ccccc2c1)NC(=O)CN1CCN(CC(=O)O)CCN(CC(=O)O)CCN(CC(=O)O)CC1)C(=O)N[C@@H](Cc1c[nH]c2ccccc12)C(=O)N[C@@H](CC(=O)O)C(=O)N[C@@H](Cc1c[nH]cn1)C(=O)N[C@H](CCCNC(=N)N)C(=O)N[C@@H](Cc1c[nH]c2ccccc12)C(=O)N[C@@H](Cc1ccc(C(=O)c2ccccc2)cc1)C(=O)N1CCC[C@H]1C(=O)NNC(N)=O` [BRU-2954] ({DOTA}-[d2Nal]RWDH[dR]W[Bpa]P[azaGly]-NH2), for which the “binding potency, times lower than BRU-2813” value is given as about 13.

As for `N=C(N)NCCC[C@H](NC(=O)[C@@H](Cc1ccc2ccccc2c1)NC(=O)CN1CCN(CC(=O)O)CCN(CC(=O)O)CCN(CC(=O)O)CC1)C(=O)N[C@@H](Cc1c[nH]c2ccccc12)C(=O)N[C@@H](CO)C(=O)N[C@@H](Cc1c[nH]cn1)C(=O)N[C@H](CCCNC(=N)N)C(=O)N[C@@H](Cc1c[nH]c2ccccc12)C(=O)N[C@@H](Cc1ccc(C(=O)c2ccccc2)cc1)C(=O)N1C[C@H](c2ccccc2)C[C@H]1C(=O)NNC(N)=O` [BRU-2953], the “binding potency, times lower than BRU-2813” value is recorded as 2.
